Measurements reported in ChEMBL document CHEMBL1150547, “-Phenoxyphenylacetic acid derived angiotensin II antagonists with low nanomolar AT1/AT2 receptor subtype affinity (Part II)” (Bioorg Med Chem Lett, 1995).

Assays:
[1] = molecular target: T1, Type-1 angiotensin II receptor (Oryctolagus cuniculus, UniProt P34976); assay: Tested for its ability to displace the specific binding ligand [125I]-Sar 1,lle8-AlI from rabbit aortic membrane (AT1 receptor)
T1 sequence (P34976 whole entry): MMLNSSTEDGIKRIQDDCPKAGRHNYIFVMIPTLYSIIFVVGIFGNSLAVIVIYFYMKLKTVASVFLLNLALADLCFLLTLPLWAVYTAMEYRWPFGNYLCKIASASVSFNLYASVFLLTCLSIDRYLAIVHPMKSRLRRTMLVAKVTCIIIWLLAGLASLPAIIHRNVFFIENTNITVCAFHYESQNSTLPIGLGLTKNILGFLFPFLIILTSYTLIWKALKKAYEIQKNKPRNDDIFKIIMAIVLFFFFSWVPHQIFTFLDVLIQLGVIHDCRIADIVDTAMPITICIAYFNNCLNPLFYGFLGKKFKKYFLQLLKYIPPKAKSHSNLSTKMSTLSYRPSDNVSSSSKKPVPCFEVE

[2] = molecular target: T2, Type-2 angiotensin II receptor (Rattus norvegicus, UniProt P35351); assay: Tested for its ability to displace the specific binding ligand [125I]-Sar 1,lle8-AlI from rat midbrain membrane (AT2 receptor); type: tissue-based
T2 sequence (P35351 whole entry): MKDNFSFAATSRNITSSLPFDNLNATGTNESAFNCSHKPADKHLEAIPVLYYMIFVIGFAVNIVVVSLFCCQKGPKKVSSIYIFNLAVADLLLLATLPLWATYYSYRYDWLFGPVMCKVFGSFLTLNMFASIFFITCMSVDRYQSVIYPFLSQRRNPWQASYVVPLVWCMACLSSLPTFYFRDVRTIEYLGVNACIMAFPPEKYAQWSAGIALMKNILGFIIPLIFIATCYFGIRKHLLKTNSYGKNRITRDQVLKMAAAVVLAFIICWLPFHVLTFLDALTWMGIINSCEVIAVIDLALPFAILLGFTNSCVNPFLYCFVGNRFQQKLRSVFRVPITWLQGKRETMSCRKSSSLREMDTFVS

Structure (SMILES): CCc1nc2c(C)cc(C)nc2n1Cc1cc(Cl)c(OC(C(=O)O)c2ccccc2)c(Cl)c1 (centres undefined)
- IC50 [1]: 0.021 µM
- IC50 [2]: 9 µM

Structure (SMILES): CCc1cc(Cn2c(CC)nc3c(C)cc(C)nc32)ccc1OC(C(=O)O)c1ccccc1 (centres undefined)
- IC50 [1]: 0.012 µM
- IC50 [2]: 0.41 µM

Structure (SMILES): CCc1nc2c(C)cc(C)nc2n1Cc1ccc(OC(C(=O)O)c2ccccc2C)c(Cl)c1 (centres undefined)
- IC50 [1]: 0.0034 µM
- IC50 [2]: 1.7 µM

Structure (SMILES): CCc1nc2c(C)cc(C)nc2n1Cc1cc(Cl)c(OC(C(=O)O)c2ccccc2)c(OC)c1 (centres undefined)
- IC50 [1]: 0.016 µM
- IC50 [2]: 7.8 µM

Structure (SMILES): CCCCc1cc(Cn2c(CC)nc3c(C)cc(C)nc32)ccc1OC(C(=O)O)c1ccccc1 (centres undefined)
- IC50 [1]: 0.012 µM
- IC50 [2]: 0.14 µM

Structure (SMILES): CCc1nc2c(C)cc(C)nc2n1Cc1ccc(OC(C(=O)O)c2ccccc2)c(C(=O)c2ccccc2)c1 (centres undefined)
- IC50 [1]: 0.12 µM
- IC50 [2]: 0.06 µM

Structure (SMILES): CCOc1cc(Cn2c(CC)nc3c(C)cc(C)nc32)ccc1OC(C(=O)O)c1ccccc1 (centres undefined)
- IC50 [1]: 0.14 µM
- IC50 [2]: 1.2 µM

Structure (SMILES): CCc1nc2c(C)cc(C)nc2n1Cc1ccc(OC(C(=O)O)c2ccccc2)c(OC)c1 (centres undefined)
- IC50 [1]: 0.17 µM
- IC50 [2]: 2.9 µM

Structure (SMILES): CCc1nc2c(C)cc(C)nc2n1Cc1ccc(OC(C(=O)O)c2ccccc2Cl)cc1 (centres undefined)
- IC50 [1]: 0.01 µM
- IC50 [2]: 15 µM

Structure (SMILES): CCc1nc2c(C)cc(C)nn2c1Cc1ccc(OC(C(=O)O)c2ccccc2)cc1 (centres undefined)
- IC50 [1]: 0.069 µM
- IC50 [2]: 3 µM

Structure (SMILES): CCc1nc2c(C)cc(C)nc2n1Cc1ccc(OC(C(=O)O)c2ccccc2)c(C(C)=O)c1 (centres undefined)
- IC50 [1]: 0.062 µM
- IC50 [2]: 0.61 µM

Structure (SMILES): CCCc1cc(Cn2c(CC)nc3c(C)cc(C)nc32)ccc1OC(C(=O)O)c1ccccc1C (centres undefined)
- IC50 [1]: 0.011 µM
- IC50 [2]: 2.4 µM

Structure (SMILES): C=CCc1cc(Cn2c(CC)nc3c(C)cc(C)nc32)ccc1OC(C(=O)O)c1ccccc1 (centres undefined)
- IC50 [1]: 0.02 µM
- IC50 [2]: 0.27 µM

Structure (SMILES): CCc1nc2c(C)cc(C)nc2n1Cc1ccc(OC(C(=O)O)c2ccccc2)c(Cc2ccccc2)c1 (centres undefined)
- IC50 [1]: 0.095 µM
- IC50 [2]: 0.8 µM

Structure (SMILES): CCCc1cc(Cn2c(CC)nc3c(C)cc(C)nc32)ccc1OC(C(=O)O)c1ccccc1OC (centres undefined)
- IC50 [1]: 0.0095 µM
- IC50 [2]: 1.2 µM

Structure (SMILES): CCCc1nc2c(C)ccnc2n1Cc1ccc(OC(C(=O)O)c2ccccc2)cc1 (centres undefined)
- IC50 [1]: 0.065 µM
- IC50 [2]: 3.4 µM

Structure (SMILES): CCCCc1nc2ccc(C)cc2c(=O)n1Cc1ccc(OC(C(=O)O)c2ccccc2)cc1 (centres undefined)
- IC50 [1]: 0.26 µM
- IC50 [2]: 0.76 µM

Structure (SMILES): CCCCc1nc2ccccc2n1Cc1ccc(OC(C(=O)O)c2ccccc2)cc1 (centres undefined)
- IC50 [1]: 0.093 µM
- IC50 [2]: 2 µM

Structure (SMILES): CCc1nc2c(C)cc(C)nc2n1Cc1ccc(OC(C(=O)O)c2ccccc2)cc1 (centres undefined)
- IC50 [1]: 0.029 µM
- IC50 [2]: 2 µM

Structure (SMILES): CCCc1cc(Cn2c(CC)nc3c(C)cc(C)nc32)ccc1OC(C(=O)O)c1ccccc1 (centres undefined)
- IC50 [1]: 0.011 µM
- IC50 [2]: 0.047 µM

Structure (SMILES): C=CCc1cc(Cn2c(CC)nc3c(C)cc(C)nc32)cc(Cl)c1OC(C(=O)O)c1ccccc1 (centres undefined)
- IC50 [1]: 0.0022 µM
- IC50 [2]: 0.76 µM

Structure (SMILES): CCc1nc2c(C)cc(C)nc2n1Cc1ccc(OC(C(=O)O)c2ccccc2)c(Cl)c1 (centres undefined)
- IC50 [1]: 0.015 µM
- IC50 [2]: 0.72 µM

Structure (SMILES): CCCc1cc(Cn2c(CC)nc3c(C)cc(C)nc32)ccc1OC(C(=O)O)c1ccccc1Cl (centres undefined)
- IC50 [1]: 0.008 µM
- IC50 [2]: > 1 µM

Structure (SMILES): CCc1nc2c(C)cc(C)nc2n1Cc1ccc(OC(C(=O)O)c2ccccc2C)cc1 (centres undefined)
- IC50 [1]: 0.006 µM
- IC50 [2]: 5.2 µM

Structure (SMILES): CCc1nc2c(C)cc(C)nc2n1Cc1ccc(OC(C(=O)O)c2ccccc2)c(C)c1 (centres undefined)
- IC50 [1]: 0.014 µM
- IC50 [2]: 0.94 µM

Structure (SMILES): CCc1nc2c(C)cc(C)nc2n1Cc1ccc(OC(C(=O)O)c2ccccc2)c(C(C)C)c1 (centres undefined)
- IC50 [1]: 0.03 µM
- IC50 [2]: 3.3 µM

Structure (SMILES): CCc1nc2c(C)cc(C)nc2n1Cc1ccc(OC(C(=O)O)c2ccccc2)c(C(C)(C)C)c1 (centres undefined)
- IC50 [1]: 0.05 µM
- IC50 [2]: 0.3 µM
